In patent US20230085307A1, “PYRIDAZINONE COMPOUND AND HERBICIDE” (NISSAN CHEMICAL CORPORATION, priority 2019, published 2023):

What was measured:
velvetleaf [1] = test: Test Example 4: herbicidal effect by soil treatment (Table 19, symbol M); format: in vivo, velvetleaf (Abutilon theophrasti); settings: amount of applied herbicide 320 g/ha
Method in brief: (§1)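 Three weeks of greenhouse growth at 25° C. to 30° C. followed a uniform surface spray of water-diluted emulsion at a predetermined herbicide amount. Seeds had been sown beforehand under about 1.5 cm of sterilized diluvial soil. Grading followed criteria set out in an earlier test.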

lambsquarters [2] = test: Test Example 5: herbicidal effect by foliage application, plastic box (Table 20, symbol O); format: in vivo, lambsquarters (Chenopodium album); settings: foliage application, 320 g/ha, evaluated three weeks after application
Method in brief: (§2)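 Plants sown in sterilized diluvial soil and grown 14 days in a greenhouse at 25° C to 30° C, then sprayed on the foliage with the compound's emulsion diluted in water to a predetermined herbicide amount. Injury to weeds and crops scored three weeks after application on a visual rating scale.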

lambsquarters [3] = test: Test Example 4: herbicidal effect by soil treatment (Table 19, symbol O); format: in vivo, lambsquarters (Chenopodium album); settings: amount of applied herbicide 320 g/ha
Method in brief: as §1

redroot pigweed [4] = test: Test Example 5: herbicidal effect by foliage application, plastic box (Table 20, symbol N); format: in vivo, redroot pigweed (Amaranthus retroflexus); settings: foliage application, 320 g/ha, evaluated three weeks after application
Method in brief: as §2

green foxtail [5] = test: Test Example 4: herbicidal effect by soil treatment (Table 19, symbol G); format: in vivo, green foxtail (Setaria viridis); settings: amount of applied herbicide 320 g/ha
Method in brief: as §1

barnyard grass [6] = test: Test Example 4: herbicidal effect by soil treatment (Table 19, symbol H); format: in vivo, barnyard grass (Echinochloa crus-galli); settings: amount of applied herbicide 320 g/ha
Method in brief: as §1

wild oat [7] = test: Test Example 4: herbicidal effect by soil treatment (Table 19, symbol I); format: in vivo, wild oat (Avena fatua); settings: amount of applied herbicide 320 g/ha
Method in brief: as §1

barnyard grass [8] = test: Test Example 5: herbicidal effect by foliage application, plastic box (Table 20, symbol H); format: in vivo, barnyard grass (Echinochloa crus-galli); settings: foliage application, 320 g/ha, evaluated three weeks after application
Method in brief: as §2

wild oat [9] = test: Test Example 5: herbicidal effect by foliage application, plastic box (Table 20, symbol I); format: in vivo, wild oat (Avena fatua); settings: foliage application, 320 g/ha, evaluated three weeks after application
Method in brief: as §2

chickweed [10] = test: Test Example 5: herbicidal effect by foliage application, plastic box (Table 20, symbol P); format: in vivo, common chickweed (Stellaria media); settings: foliage application, 320 g/ha, evaluated three weeks after application
Method in brief: as §2

Italian ryegrass [11] = test: Test Example 4: herbicidal effect by soil treatment (Table 19, symbol K); format: in vivo, Italian ryegrass (Lolium multiflorum); settings: amount of applied herbicide 320 g/ha
Method in brief: as §1

blackgrass [12] = test: Test Example 5: herbicidal effect by foliage application, plastic box (Table 20, symbol J); format: in vivo, blackgrass (Alopecurus myosuroides); settings: foliage application, 320 g/ha, evaluated three weeks after application
Method in brief: as §2

windgrass [13] = test: Test Example 4: herbicidal effect by soil treatment (Table 19, symbol L); format: in vivo, windgrass (Apera spica-venti); settings: amount of applied herbicide 320 g/ha
Method in brief: as §1

green foxtail [14] = test: Test Example 5: herbicidal effect by foliage application, plastic box (Table 20, symbol G); format: in vivo, green foxtail (Setaria viridis); settings: foliage application, 320 g/ha, evaluated three weeks after application
Method in brief: as §2

Italian ryegrass [15] = test: Test Example 5: herbicidal effect by foliage application, plastic box (Table 20, symbol K); format: in vivo, Italian ryegrass (Lolium multiflorum); settings: foliage application, 320 g/ha, evaluated three weeks after application
Method in brief: as §2

persian speedwell [16] = test: Test Example 4: herbicidal effect by soil treatment (Table 19, symbol R); format: in vivo, Persian speedwell (Veronica persica); settings: amount of applied herbicide 320 g/ha
Method in brief: as §1

chickweed [17] = test: Test Example 4: herbicidal effect by soil treatment (Table 19, symbol P); format: in vivo, common chickweed (Stellaria media); settings: amount of applied herbicide 320 g/ha
Method in brief: as §1

southern crabgrass [18] = test: Test Example 4: herbicidal effect by soil treatment (Table 19, symbol F); format: in vivo, southern crabgrass (Digitaria ciliaris); settings: amount of applied herbicide 320 g/ha
Method in brief: as §1

persian speedwell [19] = test: Test Example 5: herbicidal effect by foliage application, plastic box (Table 20, symbol R); format: in vivo, Persian speedwell (Veronica persica); settings: foliage application, 320 g/ha, evaluated three weeks after application
Method in brief: as §2

windgrass [20] = test: Test Example 5: herbicidal effect by foliage application, plastic box (Table 20, symbol L); format: in vivo, windgrass (Apera spica-venti); settings: foliage application, 320 g/ha, evaluated three weeks after application
Method in brief: as §2

velvetleaf [21] = test: Test Example 5: herbicidal effect by foliage application, plastic box (Table 20, symbol M); format: in vivo, velvetleaf (Abutilon theophrasti); settings: foliage application, 320 g/ha, evaluated three weeks after application
Method in brief: as §2

blackgrass [22] = test: Test Example 4: herbicidal effect by soil treatment (Table 19, symbol J); format: in vivo, blackgrass (Alopecurus myosuroides); settings: amount of applied herbicide 320 g/ha
Method in brief: as §1

redroot pigweed [23] = test: Test Example 4: herbicidal effect by soil treatment (Table 19, symbol N); format: in vivo, redroot pigweed (Amaranthus retroflexus); settings: amount of applied herbicide 320 g/ha
Method in brief: as §1

southern crabgrass [24] = test: Test Example 5: herbicidal effect by foliage application, plastic box (Table 20, symbol F); format: in vivo, southern crabgrass (Digitaria ciliaris); settings: foliage application, 320 g/ha, evaluated three weeks after application
Method in brief: as §2

SMILES | M: velvetleaf, herbicidal effect rating (velvetleaf [1]) | O: lambsquarters, herbicidal effect rating (lambsquarters [3]) | G: green foxtail, herbicidal effect rating (green foxtail [5]) | H: barnyard grass, herbicidal effect rating (barnyard grass [6]) | I: wild oat, herbicidal effect rating (wild oat [7]) | K: Italian ryegrass, herbicidal effect rating (Italian ryegrass [11]) | L: windgrass, herbicidal effect rating (windgrass [13]) | R: persian speedwell, herbicidal effect rating (persian speedwell [16]) | P: chickweed, herbicidal effect rating (chickweed [17]) | F: southern crabgrass, herbicidal effect rating (southern crabgrass [18]) | J: blackgrass, herbicidal effect rating (blackgrass [22]) | N: redroot pigweed, herbicidal effect rating (redroot pigweed [23]) | further results
COc1ccc(-c2sc3ccc(C)cc3c2-c2c(O)c(C)nn(C)c2=O)cc1 [2-140] | 3 (Herbicidal rate of 40% or more and less than 70%) | 0 (Herbicidal rate of 5% or less (almost no effect)) | 0 (Herbicidal rate of 5% or less (almost no effect)) | 0 (Herbicidal rate of 5% or less (almost no effect)) | 0 (Herbicidal rate of 5% or less (almost no effect)) | 0 (Herbicidal rate of 5% or less (almost no effect)) | 0 (Herbicidal rate of 5% or less (almost no effect)) | 3 (Herbicidal rate of 40% or more and less than 70%) | 0 (Herbicidal rate of 5% or less (almost no effect)) | 0 (Herbicidal rate of 5% or less (almost no effect)) | 0 (Herbicidal rate of 5% or less (almost no effect)) | 2 (Herbicidal rate of 20% or more and less than 40%) | herbicidal effect on O: lambsquarters (lambsquarters [2]): 3 (Herbicidal rate of 40% or more and less than 70%); herbicidal effect on N: redroot pigweed (redroot pigweed [4]): 3 (Herbicidal rate of 40% or more and less than 70%); herbicidal effect on H: barnyard grass (barnyard grass [8]): 0 (Herbicidal rate of 5% or less (almost no effect)); herbicidal effect on I: wild oat (wild oat [9]): 0 (Herbicidal rate of 5% or less (almost no effect)); herbicidal effect on P: chickweed (chickweed [10]): 4 (Herbicidal rate of 70% or more and less than 90%); herbicidal effect on J: blackgrass (blackgrass [12]): 0 (Herbicidal rate of 5% or less (almost no effect)); herbicidal effect on G: green foxtail (green foxtail [14]): 0 (Herbicidal rate of 5% or less (almost no effect)); herbicidal effect on K: Italian ryegrass (Italian ryegrass [15]): 0 (Herbicidal rate of 5% or less (almost no effect)); herbicidal effect on R: persian speedwell (persian speedwell [19]): 5 (Herbicidal rate of 90% or more (almost completely withered)); herbicidal effect on L: windgrass (windgrass [20]): 0 (Herbicidal rate of 5% or less (almost no effect)); herbicidal effect on M: velvetleaf (velvetleaf [21]): 4 (Herbicidal rate of 70% or more and less than 90%); herbicidal effect on F: southern crabgrass (southern crabgrass [24]): 0 (Herbicidal rate of 5% or less (almost no effect))
CCCC(=O)Oc1c(C)nn(C)c(=O)c1-c1c(-c2ccc(OC)cc2)sc2ccc(C)cc12 [2-141] | 0 (Herbicidal rate of 5% or less (almost no effect)) | 0 (Herbicidal rate of 5% or less (almost no effect)) | 0 (Herbicidal rate of 5% or less (almost no effect)) | 0 (Herbicidal rate of 5% or less (almost no effect)) | 0 (Herbicidal rate of 5% or less (almost no effect)) | 0 (Herbicidal rate of 5% or less (almost no effect)) | 0 (Herbicidal rate of 5% or less (almost no effect)) | 2 (Herbicidal rate of 20% or more and less than 40%) | 0 (Herbicidal rate of 5% or less (almost no effect)) | 0 (Herbicidal rate of 5% or less (almost no effect)) | 0 (Herbicidal rate of 5% or less (almost no effect)) | 0 (Herbicidal rate of 5% or less (almost no effect)) | herbicidal effect on O: lambsquarters (criteria 0-5) (lambsquarters [2]): 0 (Herbicidal rate of 5% or less (almost no effect)); herbicidal effect on N: redroot pigweed (criteria 0-5) (redroot pigweed [4]): 0 (Herbicidal rate of 5% or less (almost no effect)); herbicidal effect on H: barnyard grass (criteria 0-5) (barnyard grass [8]): 0 (Herbicidal rate of 5% or less (almost no effect)); herbicidal effect on I: wild oat (criteria 0-5) (wild oat [9]): 0 (Herbicidal rate of 5% or less (almost no effect)); herbicidal effect on P: chickweed (criteria 0-5) (chickweed [10]): 5 (Herbicidal rate of 90% or more (almost completely withered)); herbicidal effect on J: blackgrass (criteria 0-5) (blackgrass [12]): 0 (Herbicidal rate of 5% or less (almost no effect)); herbicidal effect on G: green foxtail (criteria 0-5) (green foxtail [14]): 0 (Herbicidal rate of 5% or less (almost no effect)); herbicidal effect on K: Italian ryegrass (criteria 0-5) (Italian ryegrass [15]): 0 (Herbicidal rate of 5% or less (almost no effect)); herbicidal effect on R: persian speedwell (criteria 0-5) (persian speedwell [19]): 5 (Herbicidal rate of 90% or more (almost completely withered)); herbicidal effect on L: windgrass (criteria 0-5) (windgrass [20]): 0 (Herbicidal rate of 5% or less (almost no effect)); herbicidal effect on M: velvetleaf (criteria 0-5) (velvetleaf [21]): 0 (Herbicidal rate of 5% or less (almost no effect)); herbicidal effect on F: southern crabgrass (criteria 0-5) (southern crabgrass [24]): 0 (Herbicidal rate of 5% or less (almost no effect))
